The record followed here is patent EP0852225B1, “FIBRINOGEN RECEPTOR ANTAGONISTS AND MEDICINAL PREPARATIONS CONTAINING THE SAME AS THE ACTIVE INGREDIENT” (NIPPON STEEL CORPORATION, priority 1996, dated 1997).

Series [1] deals with Human Platelet Aggregation. Briefly: Measurement of in vitro human platelet aggregation using PRP (collagen-induced, aggregometer light transmittance). Format: cell-based. The note with it: platelet aggregation inhibition in human PRP; collagen final concentration 5 µg/ml; 37°C. The method, then:
Healthy male volunteers who had not taken any medicines for at least two weeks were selected as subjects. Blood was collected from the forearm vein of each subject on an empty stomach using a #19 needle and a plastic syringe preliminarily charged with 1/10 volume of a 3.8% sodium citrate solution. Immediately after the blood collection, the syringe was shaken gently to mix the blood with the sodium citrate solution. The mixed blood was centrifuged (1100 rpm, 250 g) at room temperature for 15 minutes and the rotation was stopped without applying the brake. Then, the supernatant was collected with a graduated pipette to obtain platelet-rich plasma (PRP). The PRP was stored at room temperature. The blood remaining after the centrifugation was further centrifuged (3500 rpm, 1500 g) at room temperature for 15 minutes and the rotation was stopped without applying the brake. The supernatant was collected to obtain platelet-poor plasma (PPP). After the preparation of the PRP, the number of platelets was counted and only samples containing 2 x 10^8 or more of platelets per milliliter were subjected to the following experiments.
Platelet aggregation was measured using an 8-channel aggregometer (Hematracer, Nikoh Bioscience, Tokyo, Japan) on the basis of the change in light transmittance through the PRP as follows.
First, the PPP and PRP (each 200 µl) were placed in glass cuvettes and incubated at 37°C. Thereafter, the transmittance was measured. The transmittance of the PPP was defined as 100% and that of the PRP as 0%.
Then, 10 µl of physiological saline or a sample-containing physiological saline was added to the PRP and incubated at 37°C for one minute. A collagen solution (10 µl) at a concentration of 100 µg/ml was added to the PRP-containing solution (final concentration: 5 µg/ml) to induce aggregation and thereafter the transmittance was measured over 7 minutes. After the aggregation with collagen and ADP was confirmed, only those samples in which the maximum percent aggregation with collagen was at least 70% were subjected to the experiment.
The sample was dissolved in physiological saline to give a concentration of 2.2 x 10^-2 M and a 2-fold dilution series was prepared for use in the experiments. The samples insoluble in the physiological saline were dissolved in physiological saline containing 10% DMSO (dimethyl sulfoxide).
The results were calculated as follows: Percent Aggregation inhibition =(Maximum percent aggregation upon the addition of sample)/(Maximum percent aggregation upon the addtion of physiological saline) [formula]
A graph was constructed by plotting the percent of aggregation inhibition against the sample concentration and the concentration at which the aggregation was inhibited by 50% (IC50) was calculated from the graph.

Series [2] in a line: Oral administration test: time course of the concentration in plasma after oral administration. In kind it is in vivo. The following applies: male SD rats, 10 mg per kg, 30, 60 and 120 minutes after administration, HPLC, mean of three rats. The procedure: Male SD rats which had been starved from the previous day were used in this experiment. Two test substances, the compounds of Example 4 and Comparative Example 1, were dissolved in distilled water and administered into the stomach of rats with an oral probe. Each compound was administered to each rat in an amount of 10 mg per kg of body weight. Blood samples were collected 30, 60 and 120 minutes after the administration. The concentration of each compound which was in an active state (i.e., free carboxylic acid) in plasma was determined by HPLC.
In this Figure, the horizontal axis represents the time after the oral administration and the vertical axis represents the concentration of the active form of each compound in plasma. Each point represents the mean value for three rats and the standard error. […] When the peak values at 30 minutes after the oral administration are compared, the difference was about 10 times as great.

In series [1], `CCC(NC(=O)c1ccc(C(=N)N2CCOCC2)cc1)C(C)(C)C(=O)N1CCC(CC(=O)O)CC1` (stereo not drawn) [Example 2, N-(N-(9-(4-morpholinoimidoyl)benzoyl)-β-ethyl-α,α-dimethyl-β-alanyl)-4-piperidineacetic acid] gave an IC50 of 220 nM.
Consider `CCC(NC(=O)c1ccc(C(=N)N2CCOCC2)cc1F)C(C)(C)C(=O)N1CCC(CC(=O)O)CC1` (stereo not drawn) [Example 4, N-{N-(4-(4-morpholinoimidoyl)-2-fluorobenzoyl)-β-ethyl-α,α-dimethyl-β-alanyl)-4-piperidineacetic acid], for which the “concentration of the active form (free carboxylic acid) in plasma, compared with Comparative Example 1” value in series [2] was “significantly higher concentration in plasma than the compound of Comparative Example 1 at every point of determination”. Further, the IC50 in series [1] worked out at 150 nM.
On to `CCC(NC(=O)c1ccc(C(=N)N2CCCCC2)cc1F)C(C)(C)C(=O)N1CCC(CC(=O)O)CC1` (stereo not drawn) [Example 8, N-(N-(4-(1-piperidinoimidoyl)-2-fluorobenzoyl)-β-ethyl-α,α-dimethyl-β-alanyl)-4-piperidineacetic acid], for which half-maximal inhibition in series [1] (IC50) was put at 220 nM.
In the case of `CCC(NC(=O)c1ccc(C(=N)N2CCCC2)cc1F)C(C)(C)C(=O)N1CCC(CC(=O)O)CC1` (stereo not drawn) [Example 10, N-(N-(4-(1-pyrrolidinoimidoyl)-2-fluorobenzoyl)-β-ethyl-α,α-dimethyl-β-alanyl)-4-piperidineacetic acid], in series [1], the IC50 is 87 nM. This IC50 is about 2.5-fold lower than that of the molecule before.
Consider `CCC(NC(=O)c1ccc(C(=N)N2CCC(=O)CC2)cc1F)C(C)(C)C(=O)N1CCC(CC(=O)O)CC1` (stereo not drawn) [Example 12, N-(N-(4-(1-4-piperidonoimidoyl)-2-fluorobenzoyl)-β-ethyl-α,α-dimethyl-β-alanyl)-4-piperidineacetic acid], for which the IC50 in series [1] was found to be 120 nM. The IC50 values of the last two molecules are within 1.5-fold of each other.
Same read-out and setting: next, `CCC(NC(=O)c1ccc(C(=N)N2CCC(O)CC2)cc1F)C(C)(C)C(=O)N1CCC(CC(=O)O)CC1` (stereo not drawn) [Example 14, N-(N-(4-(4-hydroxy-1-piperidinoimidoyl)-2-fluorobenzoyl)-β-ethyl-α,α-dimethyl-β-alanyl)-4-piperidineacetic acid]: 52 nM; `CCC(NC(=O)c1ccc(C(=N)N2CCSC2)cc1F)C(C)(C)C(=O)N1CCC(CC(=O)O)CC1` (stereo not drawn) [Example 16, N-(N-(4-(3-thizolidinoimidoyl)-2-fluorobenzoyl)-β-ethyl-α,α-dimethyl-β-alanyl)-4-piperidineacetic acid]: 43 nM; `CCC(NC(=O)c1ccc(C(=N)N2CCCCCC2)cc1F)C(C)(C)C(=O)N1CCC(CC(=O)O)CC1` (stereo not drawn) [Example 18, N-(N-(4-(1-hexamethyleneiminoimidoyl)-2-fluorobenzoyl)-β-ethyl-α,α-dimethyl-β-alanyl)-4-piperidineacetic acid]: 230 nM.
In series [1], `CCC(NC(=O)c1ccc(C(=N)N2CCSCC2)cc1F)C(C)(C)C(=O)N1CCC(CC(=O)O)CC1` (stereo not drawn) [Example 20, N-(N-(4-(N-thiomorpholinoimidoyl)-2-fluorobenzoyl)-β-ethyl-α,α-dimethyl-β-alanyl)-4-piperidineacetic acid] registered an IC50 of 120 nM.
`CCC(NC(=O)c1ccc(C(=N)N2CCN(C)CC2)cc1F)C(C)(C)C(=O)N1CCC(CC(=O)O)CC1` (stereo not drawn) [Example 22, N-(N-(4-(4-methyl-1-piperazinoimidoyl)-2-fluorobenzoyl)-β-ethyl-α,α-dimethyl-β-alanyl)-4-piperidineacetic acid]: the IC50 in series [1] came out at 69 nM.
For `CCC(NC(=O)c1ccc(C(=N)N2CCN(c3ccccc3)CC2)cc1F)C(C)(C)C(=O)N1CCC(CC(=O)O)CC1` (stereo not drawn) [Example 24, N-(N-(4-(4-phenyl-1-piperazinoimidoyl)-2-fluorobenzoyl)-β-ethyl-α,α-dimethyl-β-alanyl)-4-piperidineacetic acid], the IC50 in series [1] was found to be 57 nM. The IC50 values of the last two molecules are within 1.5-fold of each other.
For `CCC(NC(=O)c1ccc(C(=N)N2CCN(c3ccc(F)cc3)CC2)cc1F)C(C)(C)C(=O)N1CCC(CC(=O)O)CC1` (stereo not drawn) [Example 26, N-(N-(4-(4-(4-fluorophenyl)-1-piperazinoimidoyl)-2-fluorobenzoyl)-β-ethyl-α,α-dimethyl-β-alanyl)-4-piperidineacetic acid], the IC50 in series [1] was 87 nM.
Regarding `CC(C)(C(=O)N1CCC(CC(=O)O)CC1)C(NC(=O)c1ccc(C(=N)N2CCOCC2)cc1)c1ccccc1` (centres unmarked) [Example 28], in series [1], the IC50 worked out at 240 nM.
